Values belong to the compound of their own block, whether it stands above or below them.
What was measured:
FGF-stimulated HUVEC = FGF-stimulated HUVEC proliferation assay (BrdU); type: cell-based; conditions: Homo sapiens, BrdU labeling, FGF 5 ng per mL, 24 hour exposure, read-out: Antiproliferative Activity FGF-stimulated HUVEC Assay IC50
Experimental: (§1) The antiproliferative activity of test compounds of this invention in cell-based assays was evaluated by BrdU assay using the BrdU kit (Roche Biochemicals 1-647-229). Human umbilical vein endothelial cells (HUVEC, Clonetics CC-2519) were cultured in EGM-2 (Clonetics CC-3162) medium and seeded at 10000 cells per well in a volume of 200 μL of EGM-2 (Clonetics CC-3162) media in a 96-well flat bottom plates (Costar 3595) overnight. After 24 hours of growth at 37° C. with 5% CO2, the incubation media was removed slowly by aspiration, and the content of each well was washed with 300 μL pre-warmed EBM-2 (Clonetics CC-3156) containing 50 μg per mL of gentamycin and 50 ng per mL of amphotercin-B (Clonetics CC-4083). Subsequently, the remaining media was again aspirated and replaced with 160 μL per well of serum starvation media (EBM-2 supplemented with 1% heat inactivated FBS (Clonetics CC-4102), 50 μg per mL gentamycin and 50 ng per mL of amphotercin-B (Clonetics CC-4083), 10 units per mL of Wyeth-Ayerst heparin (NDC0641-0391-25), and 2 mM L-glutamine (GIBCO 25030-081). After serum starving the cells for 24 hours, 20 μL of test compound at 10× test concentration in serum starvation medium with 2.5% DMSO was added to the appropriate wells. The control wells contained 20 μL of serum starvation medium with 2.5% DMSO. Plates were returned to the incubator for 2 hours. After pre-incubating the cells with the test compounds for 2 hours, 20 μL of growth factors at 10X assay concentration diluted in serum starvation media, FGF at 50 ng per mL, or VEGF (R&D systems 293-VE) at 200 ng per mL were added. The final concentration of FGF in the assay was 5 ng per mL and the final concentration of VEGF in the assays was 20 ng per mL. The growth factor free control wells had 20 μL per well of serum starvation media with the same amount of BSA as the wells with growth factors. The plates were returned to the incubator for an additional 22 hours.
(§2) After 24 hour exposure to the test compounds, the cells were labeled with BrdU (Roche Biochemicals 1-647-229), by adding 20 μL per well of BrdU labeling reagent that has been diluted (1:100) in serum starvation medium. The plates were then returned to the incubator for 4 hours. The labeling medium was removed by draining the medium onto paper towels. […] The plates were read at 450 nm with reference wavelength of 650 nm. The percent inhibition for each test compound was calculated by subtracting the absorbency of the blank (no cells) wells from all wells, then subtracting the division of the average absorbency of each test duplicate by the average of the controls from 1. […] The IC50 is determined from the linear regression of a plot of the logarithm of the concentration versus percent inhibition.

FGFR = biological target: T1, FGFR; test: FGFR kinase HTRF assay; type: biochemical; conditions: 1.5 nM activated FGFR, 10 μM ATP; read-out: Inhibition of FGFR IC50
T1 construct: fused on or other part: GST tag
Experimental: (§3) To determine inhibition of KDR and FGFR, kinase assays were conducted using an HTRF (Homogeneous Time Resolved Fluorescence) assay. This assay is described in A. J. Kolb et. al., Drug Discovery Today, 1998, 3(7), p 333.
FGFR activity assays were carried out as described above for the KDR activity assay with the following differences. GST-tagged FGFR enzyme was activated at room temperature for 1 hour in the following activation buffer: 100 mM HEPES, pH 7.4, 50 mM NaCl, 20 mM MgCl2, and 4 mM ATP. […] The rest of the assay was performed in the same manner as KDR assay.
(§4) Compound IC50 values were determined from duplicate sets of data, and calculated by using Excel and fitting data to equation Y=[(a−b)/{1+(X/c)^d]+b, where a and b are enzyme activity in the presence of no test inhibitor compound and an infinite amount of inhibitor test compound, respectively, c is the IC50 and d is the hill constant of the compound response. The IC50 value is the concentration of test compound that reduces by 50% the enzyme activity under the test conditions described.

KDR = biological target: T2, KDR (Homo sapiens, UniProt P35968); test: KDR kinase HTRF assay; type: biochemical; conditions: 1 nM activated KDR, 0.3 mM ATP, 37° C. for 30 minutes; read-out: Inhibition of KDR IC50
T2 construct: EEE tag
T2 sequence (P35968 20-1356, species assumed): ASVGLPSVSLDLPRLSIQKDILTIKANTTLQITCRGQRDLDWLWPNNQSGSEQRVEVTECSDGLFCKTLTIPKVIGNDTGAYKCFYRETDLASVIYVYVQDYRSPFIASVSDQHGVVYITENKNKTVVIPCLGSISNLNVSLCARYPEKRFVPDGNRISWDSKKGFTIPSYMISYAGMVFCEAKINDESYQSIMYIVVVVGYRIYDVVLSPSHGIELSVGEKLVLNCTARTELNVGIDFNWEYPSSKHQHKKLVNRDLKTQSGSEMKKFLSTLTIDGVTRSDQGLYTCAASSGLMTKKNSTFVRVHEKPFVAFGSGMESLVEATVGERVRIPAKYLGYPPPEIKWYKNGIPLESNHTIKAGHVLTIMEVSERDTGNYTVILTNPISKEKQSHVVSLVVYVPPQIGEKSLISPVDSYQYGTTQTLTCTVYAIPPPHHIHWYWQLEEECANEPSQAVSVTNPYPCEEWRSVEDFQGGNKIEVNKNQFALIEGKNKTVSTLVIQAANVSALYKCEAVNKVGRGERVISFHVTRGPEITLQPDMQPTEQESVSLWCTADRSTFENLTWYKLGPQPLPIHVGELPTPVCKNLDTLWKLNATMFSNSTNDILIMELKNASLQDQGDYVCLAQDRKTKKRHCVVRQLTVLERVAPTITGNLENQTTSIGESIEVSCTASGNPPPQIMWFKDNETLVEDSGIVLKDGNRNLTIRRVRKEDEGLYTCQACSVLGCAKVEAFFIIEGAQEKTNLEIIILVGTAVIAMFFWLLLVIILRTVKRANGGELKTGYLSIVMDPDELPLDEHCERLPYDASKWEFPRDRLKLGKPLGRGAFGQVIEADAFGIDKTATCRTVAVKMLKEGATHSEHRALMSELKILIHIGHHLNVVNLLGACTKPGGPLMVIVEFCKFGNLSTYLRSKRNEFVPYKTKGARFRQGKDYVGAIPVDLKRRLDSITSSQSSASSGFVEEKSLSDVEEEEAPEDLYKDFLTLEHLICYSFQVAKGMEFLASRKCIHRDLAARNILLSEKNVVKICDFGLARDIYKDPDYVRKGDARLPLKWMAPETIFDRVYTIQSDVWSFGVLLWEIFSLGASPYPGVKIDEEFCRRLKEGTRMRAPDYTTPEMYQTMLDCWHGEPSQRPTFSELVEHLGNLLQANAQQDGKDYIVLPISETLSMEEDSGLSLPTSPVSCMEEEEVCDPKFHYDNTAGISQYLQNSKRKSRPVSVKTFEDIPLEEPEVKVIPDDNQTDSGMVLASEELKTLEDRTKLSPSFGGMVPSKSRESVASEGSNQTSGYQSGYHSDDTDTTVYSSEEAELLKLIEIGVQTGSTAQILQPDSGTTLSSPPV
Experimental: as §3
Prior to kinase reaction, recombinant EEE-tagged KDR was activated in the presence of activation buffer (50 mM HEPES, pH 7.4, 1 mM DTT, 10% glycerol, 150 mM NaCl, 0.1 mM EDTA, 26 mM MgCl2, and 4 mM ATP). The enzyme was incubated at 4° C. for 1 hour.
Kinase activity assays were performed in 96-well polypropylene plates (Falcon) with a total volume of 90 μL in each well. Each well contained 1 μM KDR substrate (Biotin-[…]), 1 nM activated KDR, and a test compound with one of 8 assay concentrations ranging from […] to […] (1:5 serial dilution). […] The reaction was incubated at 37° C. for 30 minutes. To stop the KDR reaction, 72 μL of reaction mixture was transferred into a STOP plate containing 18 μL of revelation buffer (20 mM EDTA, 50 mM HEPES, pH 7.4, 0.02% BSA, 10 nM Eu-labelled anti-pY antibody (final conc. 2 nM), and 100 nM streptavidin (final conc. 20 nM)). After mixing, 35 μL of solution was transferred into duplicate wells of a 384-well black plate (Costar), and read at 615/665 nm on a Wallac Victor 5 reader.
as §4

Cyclin E/CDK2 = biological target: T3, Cyclin E/CDK2 (Homo sapiens, UniProt P24941); test: CDK2 Flash Plate Assay (Rb phosphorylation, 33P-ATP); type: biochemical
T3 construct: made in house; host or cells: insect cells
Experimental: To determine inhibition of CDK2 activity, purified recombinant retinoblastoma (Rb) protein was coated on 96 well FlashPlates (New England Nuclear, Boston, Mass.). […] Recombinant active human Cyclin E/CDK2 complexes were partially purified from extracts of insect cells. […] Plates were incubated for 25 minutes at room temperature with shaking, then washed and counted in the Topcount scintillation counter (Packard Instrument Co., Downers Grove, Ill.). Dilutions of test compounds were tested in duplicate in each assay. The percent inhibition of Rb phosphorylation, which is a measure of the inhibition of CDK2 activity, was determined according to the following formula:
[formula] where “test compound” refers to the average counts per minute of the test duplicates, “nonspecific” refers to the average counts per minute when no Cyclin E/CDK2 was added, and “total” refers to the average counts per minute when no compound was added.

HCT-116 = HCT-116 (colon) cell-based MTT proliferation assay; conditions: Homo sapiens, HCT-116, 96 h, 4 days post addition of test compound, read-out: Antiproliferative Activity HCT 116 (colon) Assay IC50
Experimental: The estrogen receptor negative epithelial breast carcinoma line (MDA-MB-435) was purchased from American Type Cell Culture Collection (ATCC; Rockville, Md.) and was grown in the medium recommended by ATCC. For analysis of the effect of the test compounds on growth of these cells, the cells were plated at 2000 cells per well in a 96-well tissue culture plate, and were incubated overnight at 37° C. with 5% CO2. The next day, the test compounds were dissolved in 100% dimethyl sulfoxide (DMSO) to yield a 10 mM stock solution. Each compound was diluted with sterile medium to 1 mM in a sufficient quantity to yield a final concentration of 120 μM. The compounds were then serially diluted in medium with 1.2% DMSO. One-fourth final volume of the diluted compounds was transferred to 96 well plates. Test compounds were assayed in duplicate. DMSO was added to a row of “control cells” such that the final concentration of DMSO in each well was 0.3%. Wells to which no cells were added served as the “blank.” Wells to which no inhibitor was added served as “no inhibitor control”. The plates were returned to the incubator, and 5 days post addition of test compound, were analyzed as described below.
3-(4,5-Dimethylthiazole-2-yl)-2,5-diphenyl-2H-tetrazolium bromide (thiazolyl blue; MTT) was added to each well to yield a final concentration of 1 mg/mL. The plates were then incubated at 37° C. for 3 hours. The plates were centrifuged at 1000 rpm for 5 minutes prior to aspiration of the MTT-containing medium. The MTT-containing medium was then removed and 100 μL 100% ethanol was added to each well to dissolve the resulting formazan metabolite. To ensure complete dissolution, plates were shaken for 15 minutes at room temperature. Absorbencies were read in a microtiter plate reader (Molecular Dynamics) at a wavelength of 570 nm with a 650 nm reference. Percent inhibition was calculated by subtracting the absorbance of the blank (no cell) wells from all wells, then subtracting the division of the average absorbance of each test duplicate by the average of the controls from 1.00. Inhibitory concentrations (IC50) were determined from the linear regression of a plot of the logarithm of the concentration versus the percent inhibition.
The colon adenocarcinoma line SW480 and the colon carcinoma line HCT-116 also were obtained from the ATCC and were tested according to the same protocol provided above for MDA-MB-435 cell based assay with the following modifications. Cell line SW480 was plated at 1000 cells per well and analyzed at 6 days post addition of the test compound. Cell line HCT-116 was plated at 1000 cells per well and analyzed at 4 days post addition of test compound.

VEGF-stimulated HUVEC = VEGF-stimulated HUVEC proliferation assay (BrdU); type: cell-based; conditions: Homo sapiens, BrdU labeling, VEGF 20 ng per mL, 24 hour exposure, read-out: Antiproliferative Activity VEGF-stimulated HUVEC Assay IC50
Experimental: as §1, §2

melting point: 210 to 211 °C
Structure (SMILES): COc1cc2c(cc1Br)C(c1ccccc1Cl)=Nc1c(n[nH]c1C)N2

melting point: 288 to 290 °C
Structure (SMILES): COc1cc2c(cc1C#N)C(c1ccccc1Cl)=Nc1c[nH]nc1N2

melting point: 275 to 276 °C
Structure (SMILES): COc1cc2c(cc1C)C(c1ccccc1Cl)=Nc1c[nH]nc1N2

IC50 (FGFR): 32 nM
IC50 (KDR): 22 nM
Structure (SMILES): COc1cc2c(cc1C(N)=O)C(c1ccccc1Cl)=Nc1c(n[nH]c1C)N2 [IVc]
IC50 (FGF-stimulated HUVEC): < 1 nM

IC50 (HCT-116): 197 nM
Structure (SMILES): COCCOc1cc2c(cc1OC)C(c1ccccc1Cl)=Nc1c(n[nH]c1C)N2 [IVgg, 5-(2-chlorophenyl)-1,2-dihydro-7-methoxy-8-methoxyethoxy-3-methyl-pyrazolo[3,4-b][1,4]benzodiazepine]

IC50 (KDR): 31 nM
Structure (SMILES): Cc1[nH]nc2c1N=C(c1ccccc1Cl)c1cc(F)c(OCCCN3CCOCC3)cc1N2 [IVi, 5-(2-chlorophenyl)-1,2-dihydro-7-fluoro-8-(3-(4-morpholinyl)propoxy)-3-methyl-pyrazolo[3,4-b][1,4]benzodiazepine]

IC50 (FGFR): 33 nM
Structure (SMILES): Cc1[nH]nc2c1N=C(c1ccccc1Cl)c1cc(C#N)c(OCCCN3CCOCC3)cc1N2 [IVk, 5-(2-chlorophenyl)-7-cyano-1,2-dihydro-8-(3-(4-morpholinyl)propoxy)-3-methyl-pyrazolo[3,4-b][1,4]benzodiazepine]

IC50 (KDR): 24 nM
IC50 (HCT-116): 509 nM
Structure (SMILES): COCCOc1cc2c(cc1OC)Nc1n[nH]c(C)c1N=C2c1ccccc1Cl [IVkk, 5-(2-chlorophenyl)-1,2-dihydro-8-methoxy-7-methoxyethoxy-3-methyl-pyrazolo[3,4-b][1,4]benzodiazepine]

Further lines, the compound ahead of its results:

Structure (SMILES): COc1cc2c(cc1F)C(c1ccccc1Cl)=Nc1c[nH]nc1N2
melting point: 242 to 243 °C

Structure (SMILES): COCCOc1cc2c(cc1F)C(c1ccccc1Cl)=Nc1c(n[nH]c1C)N2 [IVf, 5-(2-chlorophenyl)-1,2-dihydro-7-fluoro-8-methoxyethoxy-3-methyl-pyrazolo[3,4-b][1,4]benzodiazepine]
IC50 (Cyclin E/CDK2): 395 nM
IC50 (HCT-116): 498 nM

Structure (SMILES): Cc1[nH]nc2c1N=C(c1ccccc1Cl)c1cc(F)c(OC(C)C)cc1N2 [IVh, 5-(2-chlorophenyl)-1,2-dihydro-7-fluoro-8-(1-methylethoxy)-3-methyl-pyrazolo[3,4-b][1,4]benzodiazepine]
IC50 (Cyclin E/CDK2): 247 nM

Structure (SMILES): Cc1cc2c(cc1C)C(c1ccccc1Cl)=Nc1c(n[nH]c1C)N2 [IVw, 5-(2-chlorophenyl)-1,2-dihydro-3,7,8-trimethyl-pyrazolo[3,4-b][1,4]benzodiazepine]
IC50 (VEGF-stimulated HUVEC): 22 nM
IC50 (FGF-stimulated HUVEC): 36 nM
IC50 (FGFR): 38 nM

Structure (SMILES): COc1cc2c(cc1Cl)Nc1n[nH]c(C)c1N=C2c1ccccc1Cl [IVy, 8-chloro-5-(2-chlorophenyl)-1,2-dihydro-7-methoxy-3-methyl-pyrazolo[3,4-b][1,4]benzodiazepine]
IC50 (VEGF-stimulated HUVEC): 174 nM

Structure (SMILES): COc1cc2c(cc1C)C(c1ccccc1Cl)=Nc1c(n[nH]c1C)N2 [IVz, 5-(2-chlorophenyl)-1,2-dihydro-3,7-dimethyl-8-methoxy-pyrazolo[3,4-b][1,4]benzodiazepine]
IC50 (VEGF-stimulated HUVEC): 12 nM

Source: patent US7524840B2, “7,8-disubstituted pyrazolobenzodiazepines” (Hoffmann-La Roche Inc., priority 2004, dated 2009)
